According to PubChem BioAssay AID1259407 (Chemical Carcinogenesis Research Information System (CCRIS), 2018):
Activity calls are given as the source filed them. How the calls were made is not given here.

Test system: CCRIS mutagenicity, Ames/micronucleus/aberration tests
Assay: CCRIS mutagenicity studies
From the text: The CCRIS database contains chemical records with carcinogenicity, mutagenicity, tumor promotion, and tumor inhibition test results. It was developed by the National Cancer Institute (NCI). Data are derived from studies cited in primary journals, current awareness tools, NCI reports, and other sources. Test results have been reviewed by experts in carcinogenesis and mutagenesis.
CCRIS provides historical information from the years 1985 - 2011. It is no longer updated.
This is an archive assay for CCRIS mutagenicity studies.

[1] = Test System: AMES SALMONELLA TYPHIMURIUM, Strain/Indicator: TA100, Metabolic Activation: NONE, Method: STANDARD PLATE
[2] = Test System: AMES SALMONELLA TYPHIMURIUM, Strain/Indicator: TA100, Metabolic Activation: RAT, LIVER, S-9, AROCLOR 1254, Method: STANDARD PLATE
[3] = Test System: AMES SALMONELLA TYPHIMURIUM, Strain/Indicator: TA98, Metabolic Activation: NONE, Method: STANDARD PLATE

**Q.** With `CBr` as the molecule, how does the mutagenic call (Test System: AMES SALMONELLA TYPHIMURIUM, Strain/Indicator: TA98, Metabolic Activation: HAMSTER, LIVER, S-9, AROCLOR 1254 (30%), Method: DESICCATOR) read?
**A.** inactive; negative

**Q.** And the mutagenic call (Test System: AMES SALMONELLA TYPHIMURIUM, Strain/Indicator: TA98, Metabolic Activation: NONE, Method: DESICCATOR)?
**A.** inactive; negative

**Q.** And the mutagenic call (Test System: AMES SALMONELLA TYPHIMURIUM, Strain/Indicator: TA98, Metabolic Activation: NONE, Method: GAS EXPOSURE)?
**A.** inactive; negative

**Q.** And the mutagenic call (Test System: AMES SALMONELLA TYPHIMURIUM, Strain/Indicator: TA98, Metabolic Activation: RAT, LIVER, S-9, AROCLOR 1254 (30%), Method: DESICCATOR)?
**A.** inactive; negative

**Q.** What about the mutagenic call (Test System: AMES SALMONELLA TYPHIMURIUM, Strain/Indicator: TA98, Metabolic Activation: RAT, LIVER, S-9, SODIUM PHENOBARBITAL AND 5,6-BENZOFLAVONE, Method: GAS EXPOSURE) of the same molecule?
**A.** inactive; negative

**Q.** And the mutagenic call (Test System: AMES SALMONELLA TYPHIMURIUM, Strain/Indicator: TA100, Metabolic Activation: HAMSTER, LIVER, S-9, AROCLOR 1254 (30%), Method: DESICCATOR)?
**A.** active; positive

**Q.** And the mutagenic call (Test System: AMES SALMONELLA TYPHIMURIUM, Strain/Indicator: TA100, Metabolic Activation: NONE, Method: DESICCATOR)?
**A.** active; positive

**Q.** What about the mutagenic call (Test System: AMES SALMONELLA TYPHIMURIUM, Strain/Indicator: TA100, Metabolic Activation: NONE, Method: GAS EXPOSURE) of the same molecule?
**A.** active; positive

**Q.** And the mutagenic call (Test System: AMES SALMONELLA TYPHIMURIUM, Strain/Indicator: TA100, Metabolic Activation: NONE, Method: PREINCUBATION)?
**A.** active; positive

**Q.** And the mutagenic call [1]?
**A.** active; positive

**Q.** What about the mutagenic call (Test System: AMES SALMONELLA TYPHIMURIUM, Strain/Indicator: TA100, Metabolic Activation: RAT, LIVER, S-9, AROCLOR 1254 (30%), Method: DESICCATOR) of the same molecule?
**A.** active; positive

**Q.** And the mutagenic call (Test System: AMES SALMONELLA TYPHIMURIUM, Strain/Indicator: TA100, Metabolic Activation: RAT, LIVER, S-9, AROCLOR 1254, Method: PREINCUBATION)?
**A.** active; positive

**Q.** And the mutagenic call [2]?
**A.** active; positive

**Q.** What about the mutagenic call (Test System: AMES SALMONELLA TYPHIMURIUM, Strain/Indicator: TA100, Metabolic Activation: RAT, LIVER, S-9, SODIUM PHENOBARBITAL AND 5,6-BENZOFLAVONE, Method: GAS EXPOSURE) of the same molecule?
**A.** active; positive

**Q.** What about the mutagenic call (Test System: AMES SALMONELLA TYPHIMURIUM, Strain/Indicator: TA1535, Metabolic Activation: NONE, Method: GAS EXPOSURE) of the same molecule?
**A.** active; positive

**Q.** What about the mutagenic call (Test System: AMES SALMONELLA TYPHIMURIUM, Strain/Indicator: TA1535, Metabolic Activation: RAT, LIVER, S-9, SODIUM PHENOBARBITAL AND 5,6-BENZOFLAVONE, Method: GAS EXPOSURE) of the same molecule?
**A.** active; positive

**Q.** What about the mutagenic call (Test System: AMES SALMONELLA TYPHIMURIUM, Strain/Indicator: TA1537, Metabolic Activation: NONE, Method: GAS EXPOSURE) of the same molecule?
**A.** inactive; negative

**Q.** And the mutagenic call (Test System: AMES SALMONELLA TYPHIMURIUM, Strain/Indicator: TA1537, Metabolic Activation: RAT, LIVER, S-9, SODIUM PHENOBARBITAL AND 5,6-BENZOFLAVONE, Method: GAS EXPOSURE)?
**A.** inactive; negative

**Q.** And the mutagenic call (Test System: E. COLI, Strain/Indicator: WP2UVRA, Metabolic Activation: NONE, Method: GAS EXPOSURE)?
**A.** active; positive

**Q.** What about the mutagenic call (Test System: E. COLI, Strain/Indicator: WP2UVRA, Metabolic Activation: RAT, LIVER, S-9, SODIUM PHENOBARBITAL AND 5,6-BENZOFLAVONE, Method: GAS EXPOSURE) of the same molecule?
**A.** active; positive

**Q.** For `O=C1CCC(=O)N1O`, which mutagenic call [3] is on record?
**A.** inactive; negative

**Q.** And the mutagenic call (Test System: AMES SALMONELLA TYPHIMURIUM, Strain/Indicator: TA98, Metabolic Activation: RAT, LIVER, S-9, AROCLOR 1254, Method: STANDARD PLATE)?
**A.** inactive; negative

**Q.** And the mutagenic call [1]?
**A.** inactive; negative

**Q.** And the mutagenic call [2]?
**A.** inactive; negative

**Q.** And the mutagenic call (Test System: AMES SALMONELLA TYPHIMURIUM, Strain/Indicator: TA1535, Metabolic Activation: NONE, Method: STANDARD PLATE)?
**A.** inactive; negative

**Q.** And the mutagenic call (Test System: AMES SALMONELLA TYPHIMURIUM, Strain/Indicator: TA1535, Metabolic Activation: RAT, LIVER, S-9, AROCLOR 1254, Method: STANDARD PLATE)?
**A.** inactive; negative

**Q.** What about the mutagenic call (Test System: AMES SALMONELLA TYPHIMURIUM, Strain/Indicator: TA1537, Metabolic Activation: NONE, Method: STANDARD PLATE) of the same molecule?
**A.** inactive; negative

**Q.** What about the mutagenic call (Test System: AMES SALMONELLA TYPHIMURIUM, Strain/Indicator: TA1537, Metabolic Activation: RAT, LIVER, S-9, AROCLOR 1254, Method: STANDARD PLATE) of the same molecule?
**A.** inactive; negative

**Q.** With `C=CC1=C(C)/C(=C/c2[nH]c(Cc3[nH]c(/C=C4\NC(=O)C(C)=C4C=C)c(C)c3CCC(=O)O)c(CCC(=O)O)c2C)NC1=O` as the molecule, how does the mutagenic call (Test System: Ames Salmonella typhimurium, Strain/Indicator: TA98, Metabolic Activation: Liver, S-9, Method: Preincubation) read?
**A.** inactive; negative

**Q.** What about the mutagenic call (Test System: Ames Salmonella typhimurium, Strain/Indicator: TA98, Metabolic Activation: None, Method: Preincubation) of the same molecule?
**A.** inactive; negative

**Q.** And the mutagenic call (Test System: Ames Salmonella typhimurium, Strain/Indicator: TA100, Metabolic Activation: Liver, S-9, Method: Preincubation)?
**A.** inactive; negative

**Q.** What about the mutagenic call (Test System: Ames Salmonella typhimurium, Strain/Indicator: TA100, Metabolic Activation: None, Method: Preincubation) of the same molecule?
**A.** inactive; negative

**Q.** What about the mutagenic call (Test System: Ames Salmonella typhimurium, Strain/Indicator: TA102, Metabolic Activation: Liver, S-9, Method: Preincubation) of the same molecule?
**A.** inactive; negative

**Q.** What about the mutagenic call (Test System: Ames Salmonella typhimurium, Strain/Indicator: TA102, Metabolic Activation: None, Method: Preincubation) of the same molecule?
**A.** inactive; negative

**Q.** With `O=C(Nc1ccccc1Br)c1csc([N+](=O)[O-])c1` as the molecule, how does the mutagenic call [3] read?
**A.** active; positive

**Q.** What about the mutagenic call [1] of the same molecule?
**A.** active; positive
